Measurements from the supplement of paper PMC5908809.

How the values were obtained:
[1] = tested on: normal NK cells expanded with K562-aAPC; assay: percent inhibition of viability; higher = more inhibition; conditions: 72 h, IL-2 2.5 ng/mL
Protocol: (§1)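 Drug sensitivity and resistance testing on K562-aAPC-expanded normal NK cells: 5 concentrations (10-fold steps over a 10,000-fold range), 72 h at 37 °C, viability by CellTiter-Glo normalised to DMSO and benzethonium chloride controls; DSS from the fitted curve.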

[2] = tested on: NKL (IL-2 2.5 ng/mL); assay: drug sensitivity score (DSS) (DSS units); higher = more sensitive; extreme values may be limits of the assay; conditions: 72 h
[3] = tested on: KHYG-1 (IL-2 2.5 ng/mL); assay: as above; conditions: 72 h
[4] = tested on: DERL-7 (IL-2 2.5 ng/mL); assay: as above; conditions: 72 h
[5] = tested on: SNK-6 (IL-2 2.5 ng/mL); assay: as above; conditions: 72 h
[6] = tested on: KAI3 (IL-2 2.5 ng/mL); assay: as above; conditions: 72 h
[7] = tested on: normal primary NK cells, pool 1 (3 donors) (IL-2 2.5 ng/mL); assay: as above; conditions: 72 h
[8] = tested on: normal primary NK cells, pool 2 (3 donors) (IL-2 2.5 ng/mL); assay: as above; conditions: 72 h
[9] = tested on: normal primary NK cells, pool 3 (3 donors) (IL-2 2.5 ng/mL); assay: as above; conditions: 72 h
[10] = tested on: NK-92 (IL-2 2.5 ng/mL); assay: as above; conditions: 72 h
[11] = tested on: YT (IL-2 2.5 ng/mL); assay: as above; conditions: 72 h
[12] = tested on: NK-YS (IL-2 2.5 ng/mL); assay: as above; conditions: 72 h
[13] = tested on: normal primary NK cells, pool 1 (3 donors), resting (IL-2 0 ng/mL); assay: as above; conditions: 72 h
[14] = tested on: IMC-1 (IL-2 20 ng/mL); assay: as above; conditions: 72 h
[15] = tested on: normal NK cells expanded with K562-aAPC; assay: as above; conditions: 72 h; IL-2 2.5 ng/mL
Protocol: as §1

[16] = tested on: NKL (IL-2 2.5 ng/mL); assay: percent inhibition of viability; higher = more inhibition; conditions: 72 h
[17] = tested on: KHYG-1 (IL-2 2.5 ng/mL); assay: as above; conditions: 72 h
[18] = tested on: DERL-7 (IL-2 2.5 ng/mL); assay: as above; conditions: 72 h
[19] = tested on: SNK-6 (IL-2 2.5 ng/mL); assay: as above; conditions: 72 h
[20] = tested on: KAI3 (IL-2 2.5 ng/mL); assay: as above; conditions: 72 h
[21] = tested on: normal primary NK cells, pool 1 (3 donors) (IL-2 2.5 ng/mL); assay: as above; conditions: 72 h
[22] = tested on: normal primary NK cells, pool 2 (3 donors) (IL-2 2.5 ng/mL); assay: as above; conditions: 72 h
[23] = tested on: normal primary NK cells, pool 3 (3 donors) (IL-2 2.5 ng/mL); assay: as above; conditions: 72 h
[24] = tested on: NK-92 (IL-2 2.5 ng/mL); assay: as above; conditions: 72 h
[25] = tested on: YT (IL-2 2.5 ng/mL); assay: as above; conditions: 72 h
[26] = tested on: NK-YS (IL-2 2.5 ng/mL); assay: as above; conditions: 72 h
[27] = tested on: normal primary NK cells, pool 1 (3 donors), resting (IL-2 0 ng/mL); assay: as above; conditions: 72 h
[28] = tested on: IMC-1 (IL-2 20 ng/mL); assay: as above; conditions: 72 h

CO[C@H]1C[C@@H]2CC[C@@H](C)[C@@](O)(O2)C(=O)C(=O)N2CCCC[C@H]2C(=O)O[C@H]([C@H](C)C[C@@H]2CC[C@@H](OCCO)[C@H](OC)C2)CC(=O)[C@H](C)/C=C(\C)[C@@H](O)[C@@H](OC)C(=O)[C@H](C)C[C@H](C)/C=C/C=C/C=C/1C [Everolimus] (max concentration tested 100 nM)
percent inhibition of viability [%]
Conditions	0.01 nM	0.1 nM	1 nM	10 nM	100 nM
[1]	-0.77	-3.8	-2.52	2.05	0.46
[16]	4.18	17.6	36.9	46	43.3
[17]	-2.44	-5.06	0.91	30.6	28.2
[18]	-6.16	5.85	26.6	49.4	52.4
[19]	5.61	27	39.2	45.4	42.4
[20]	-3.78	2.36	31.4	45.3	37.6
[21]	-12.5	-14.8	-8.5	3.67	5.77
[22]	-7.7	-1.98	0.82	5.73	4.97
[23]	-12.6	-4.69	-3.14	-1.42	-2.25
[24]	-9.11	-13.2	0.14	10.7	17
[25]	0.19	-0.65	15.8	38.4	37
[26]	-2.59	2.94	38.2	47.2	45.8
[27]	-9.7	-10.5	-6.43	11.5	21.5
[28]	-0.49	-3.23	-12.1	-39.5	-47.1

Conditions	drug sensitivity score
[2]	14.5
[3]	5.27
[4]	12.3
[5]	16.6
[6]	12.1
[7]	0
[8]	0
[9]	0
[10]	1.27
[11]	8.98
[12]	13.5
[13]	1.91
[14]	0
[15]	0

C[C@]12C=CC(=O)C=C1CC[C@@H]1[C@@H]2[C@@H](O)C[C@@]2(C)[C@H]1CC[C@]2(O)C(=O)CO [Prednisolone] (max concentration tested 10000 nM)
percent inhibition of viability [%]
Conditions	1 nM	10 nM	100 nM	1000 nM	10000 nM
[1]	-2.45	5	39.2	57.3	63.9
[16]	3.58	12	48.8	51.4	55.3
[17]	-5.42	-2.27	10.1	29.8	34.5
[18]	-5.13	1.92	70	98	99.5
[19]	5.43	22.4	7.45	10.2	35.9
[20]	-9.17	-13.6	-7.78	-7.77	-8.06
[21]	1.14	10.2	27.4	63.4	78.3
[22]	-6.45	-3.01	28.6	51.2	65
[23]	-9.31	-4.01	13.1	36.8	47.6
[24]	-16	-15.5	-34.4	-24.4	-24.4
[25]	-0.96	6.16	13.1	20.2	18.8
[26]	-2.75	-1.1	-1.97	-1.53	5.33
[27]	4.52	3.57	56.8	80.2	89.9
[28]	-3.99	-3.97	-9.73	-19.4	-17

Conditions	drug sensitivity score
[2]	17.5
[3]	6.17
[4]	26.2
[5]	4.24
[6]	0
[7]	15.3
[8]	13.2
[9]	8.07
[10]	0
[11]	3.72
[12]	0
[13]	23
[14]	0
[15]	16.2
